These results are taken from patent US20030100595A1, “Oral dosage form of a sulfonamide prodrug” (priority 2001, published 2003).

SMILES strings stand for the structures.

For data set [1] the following is noted: background statement, in words; cited from earlier work.
Another data set deals with COX-1 (Homo sapiens, UniProt P23219). Conditions: background statement, in words; cited from earlier work.
Data set [2] in a line: Human pharmacokinetic study: valdecoxib blood plasma concentration by HPLC. It counts as in vivo. As to the method:
Subjects drank 180 ml water one, two and three hours postdose. […] Rapid onset is a highly desirable feature of many therapies for COX-2 mediated disorders, particularly those accompanied by acute pain. […] Each subject received each of three treatments, in randomized sequence, treatments being separated by 15 days. […] Following each treatment, subjects drank 180 ml water one, two and three hours after the treatment.

Sequence of COX-1 (P23219 24-599): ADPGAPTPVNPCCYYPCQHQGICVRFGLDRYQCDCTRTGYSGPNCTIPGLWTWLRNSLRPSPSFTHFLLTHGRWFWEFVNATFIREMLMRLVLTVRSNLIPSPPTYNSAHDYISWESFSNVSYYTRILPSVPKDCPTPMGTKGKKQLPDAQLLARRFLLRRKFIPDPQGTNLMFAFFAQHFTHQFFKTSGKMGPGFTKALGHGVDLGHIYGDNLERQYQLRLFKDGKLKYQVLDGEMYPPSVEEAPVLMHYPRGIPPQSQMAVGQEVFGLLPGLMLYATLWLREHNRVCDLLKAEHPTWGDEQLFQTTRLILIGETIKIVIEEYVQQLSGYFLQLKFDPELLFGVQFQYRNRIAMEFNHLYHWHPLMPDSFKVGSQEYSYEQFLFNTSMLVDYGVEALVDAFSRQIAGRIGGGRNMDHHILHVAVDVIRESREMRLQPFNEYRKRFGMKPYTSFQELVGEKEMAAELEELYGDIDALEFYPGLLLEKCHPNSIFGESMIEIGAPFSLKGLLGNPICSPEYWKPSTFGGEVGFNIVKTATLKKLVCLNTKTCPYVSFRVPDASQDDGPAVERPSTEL

For the molecule `CCC(=O)NS(=O)(=O)c1ccc(-c2c(-c3ccccc3)noc2C)cc1` [parecoxib], the water solubility result in data set [1] is reported as “high”. In addition, on COX-1, the “in vitro inhibitory activity against COX-1” value is “weak”. In addition, the “conversion of parecoxib to valdecoxib” value in data set [2] (administered orally to a human subject) is “rapidly and completely converted to valdecoxib”.

In general, Tmax refers to the time at which the peak concentration occurs. One may read the half-life as the time in which the quantity being followed falls by half. On to `Cc1onc(-c2ccccc2)c1-c1ccc(S(N)(=O)=O)cc1` [valdecoxib], for which the water solubility result in data set [1] is recorded as “substantially water-insoluble”. In addition, the “in vitro inhibitory activity against COX-1” value at COX-1 is reported as “weak”. Also, in data set [2] (male, human, plasma, po, 20 mg), the time to peak (Tmax) is 3.11 h and the half-life is 7.69 ± 2.45 h.
